Reference: the NIST ThermoML archive (doi:10.1021/je8001267)
± gives the expanded uncertainty stated by the source.

Settings: Liquid, Closed cell (Static) method

Structure (SMILES): N [ammonia]
- vapor or sublimation pressure (303.12 K): 1166 ± 12 kPa
- vapor or sublimation pressure (313.14 K): 1553 ± 16 kPa
- vapor or sublimation pressure (323.16 K): 2030 ± 21 kPa
- vapor or sublimation pressure (333.13 K): 2609 ± 26 kPa
- vapor or sublimation pressure (343.13 K): 3305 ± 34 kPa
- vapor or sublimation pressure (353.13 K): 4132 ± 42 kPa
- vapor or sublimation pressure (363.12 K): 5105 ± 52 kPa
- vapor or sublimation pressure (373.16 K): 6243 ± 63 kPa
